Measurements taken from ChEMBL document CHEMBL2413041, “In search of potent and selective inhibitors of neuronal nitric oxide synthase with more simple structures” (Bioorg Med Chem, 2013).

Experiments:
[1] = Selectivity ratio of Ki for recombinant bovine eNOS to Ki for recombinant rat nNOS
[2] = target: Nitric oxide synthase 1 (Rattus norvegicus, UniProt P29476); test: Inhibition of recombinant rat nNOS expressed in Escherichia coli using L-arginine as substrate assessed as formation of nitric oxide measured up to 60 secs by hemoglobin capture assay
Chain of Nitric oxide synthase 1 (P29476 whole entry): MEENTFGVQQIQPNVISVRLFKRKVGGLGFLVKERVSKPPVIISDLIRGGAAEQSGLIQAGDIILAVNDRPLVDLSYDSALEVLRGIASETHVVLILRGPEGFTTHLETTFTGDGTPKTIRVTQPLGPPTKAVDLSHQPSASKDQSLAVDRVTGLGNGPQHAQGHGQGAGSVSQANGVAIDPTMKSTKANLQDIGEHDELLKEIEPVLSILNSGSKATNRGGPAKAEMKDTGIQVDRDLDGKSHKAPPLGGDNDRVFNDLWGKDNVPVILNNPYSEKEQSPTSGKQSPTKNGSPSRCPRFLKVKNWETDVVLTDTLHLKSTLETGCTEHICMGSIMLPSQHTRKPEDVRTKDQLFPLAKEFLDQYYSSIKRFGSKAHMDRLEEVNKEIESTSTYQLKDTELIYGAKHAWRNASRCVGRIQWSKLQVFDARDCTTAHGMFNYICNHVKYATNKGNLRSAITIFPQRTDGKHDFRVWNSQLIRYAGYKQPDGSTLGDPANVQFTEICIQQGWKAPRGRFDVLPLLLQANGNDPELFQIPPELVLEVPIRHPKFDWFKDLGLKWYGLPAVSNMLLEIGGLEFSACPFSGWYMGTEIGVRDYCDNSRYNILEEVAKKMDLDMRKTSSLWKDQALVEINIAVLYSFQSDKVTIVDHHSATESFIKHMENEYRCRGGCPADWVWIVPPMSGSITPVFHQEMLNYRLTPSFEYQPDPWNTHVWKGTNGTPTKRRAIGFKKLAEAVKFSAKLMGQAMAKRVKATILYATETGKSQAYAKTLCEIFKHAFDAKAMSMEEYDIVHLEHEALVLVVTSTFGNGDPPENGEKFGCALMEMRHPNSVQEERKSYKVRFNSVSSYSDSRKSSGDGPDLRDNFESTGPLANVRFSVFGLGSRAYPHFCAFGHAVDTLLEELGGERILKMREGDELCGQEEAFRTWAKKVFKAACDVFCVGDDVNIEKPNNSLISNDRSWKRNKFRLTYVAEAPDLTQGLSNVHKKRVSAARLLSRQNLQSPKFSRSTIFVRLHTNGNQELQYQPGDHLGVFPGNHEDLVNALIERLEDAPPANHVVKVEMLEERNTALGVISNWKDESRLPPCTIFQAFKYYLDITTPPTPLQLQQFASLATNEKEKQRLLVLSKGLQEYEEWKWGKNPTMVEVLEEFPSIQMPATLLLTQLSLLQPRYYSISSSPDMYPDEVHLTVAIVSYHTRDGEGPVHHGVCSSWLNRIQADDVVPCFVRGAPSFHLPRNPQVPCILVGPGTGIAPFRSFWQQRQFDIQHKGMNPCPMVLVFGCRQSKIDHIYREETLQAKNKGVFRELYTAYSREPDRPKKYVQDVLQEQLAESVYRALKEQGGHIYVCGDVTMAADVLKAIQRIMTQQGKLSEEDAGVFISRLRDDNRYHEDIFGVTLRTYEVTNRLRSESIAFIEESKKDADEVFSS

[3] = Selectivity ratio of Ki for recombinant mouse macrophage iNOS to Ki for recombinant rat nNOS
[4] = target: T1, Nitric oxide synthase 3 (Bos taurus, UniProt P29473); test: Inhibition of recombinant bovine eNOS expressed in Escherichia coli using L-arginine as substrate assessed as formation of nitric oxide measured up to 60 secs by hemoglobin capture assay
T1 sequence (P29473 whole entry): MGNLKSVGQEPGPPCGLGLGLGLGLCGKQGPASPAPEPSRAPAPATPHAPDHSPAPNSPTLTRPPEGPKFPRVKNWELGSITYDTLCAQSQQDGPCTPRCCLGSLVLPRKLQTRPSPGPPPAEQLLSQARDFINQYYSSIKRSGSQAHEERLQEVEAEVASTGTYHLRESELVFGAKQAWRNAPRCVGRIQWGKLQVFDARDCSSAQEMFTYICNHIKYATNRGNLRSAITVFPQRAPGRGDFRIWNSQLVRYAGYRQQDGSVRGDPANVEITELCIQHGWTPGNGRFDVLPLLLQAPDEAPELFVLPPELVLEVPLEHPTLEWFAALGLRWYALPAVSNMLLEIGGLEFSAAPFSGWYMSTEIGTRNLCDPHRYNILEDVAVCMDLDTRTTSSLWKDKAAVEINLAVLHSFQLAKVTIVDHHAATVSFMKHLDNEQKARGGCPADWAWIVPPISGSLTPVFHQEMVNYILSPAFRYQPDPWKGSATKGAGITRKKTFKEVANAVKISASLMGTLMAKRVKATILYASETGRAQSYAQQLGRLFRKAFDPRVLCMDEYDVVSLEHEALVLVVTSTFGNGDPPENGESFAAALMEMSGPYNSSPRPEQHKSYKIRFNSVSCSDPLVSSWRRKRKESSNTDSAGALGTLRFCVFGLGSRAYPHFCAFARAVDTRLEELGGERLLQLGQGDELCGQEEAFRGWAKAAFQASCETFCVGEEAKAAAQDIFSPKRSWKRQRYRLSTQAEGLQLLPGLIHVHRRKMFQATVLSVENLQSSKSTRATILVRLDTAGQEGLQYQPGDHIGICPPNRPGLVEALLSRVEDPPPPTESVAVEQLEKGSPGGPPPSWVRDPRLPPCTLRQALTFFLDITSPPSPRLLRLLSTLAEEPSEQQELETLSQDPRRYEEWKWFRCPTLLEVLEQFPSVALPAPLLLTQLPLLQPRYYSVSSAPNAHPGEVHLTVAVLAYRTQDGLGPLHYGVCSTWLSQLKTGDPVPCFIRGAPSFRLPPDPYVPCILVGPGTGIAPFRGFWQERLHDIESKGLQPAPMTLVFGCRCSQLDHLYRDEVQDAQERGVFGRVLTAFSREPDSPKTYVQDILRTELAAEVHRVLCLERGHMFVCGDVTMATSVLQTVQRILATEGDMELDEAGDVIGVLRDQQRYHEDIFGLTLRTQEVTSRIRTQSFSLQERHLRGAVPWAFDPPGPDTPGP

[5] = target: T2, Nitric oxide synthase, inducible (Mus musculus, UniProt P29477); test: Inhibition of recombinant mouse macrophage iNOS expressed in Escherichia coli using L-arginine as substrate assessed as formation of nitric oxide measured up to 60 secs by hemoglobin capture assay
T2 sequence (P29477 whole entry): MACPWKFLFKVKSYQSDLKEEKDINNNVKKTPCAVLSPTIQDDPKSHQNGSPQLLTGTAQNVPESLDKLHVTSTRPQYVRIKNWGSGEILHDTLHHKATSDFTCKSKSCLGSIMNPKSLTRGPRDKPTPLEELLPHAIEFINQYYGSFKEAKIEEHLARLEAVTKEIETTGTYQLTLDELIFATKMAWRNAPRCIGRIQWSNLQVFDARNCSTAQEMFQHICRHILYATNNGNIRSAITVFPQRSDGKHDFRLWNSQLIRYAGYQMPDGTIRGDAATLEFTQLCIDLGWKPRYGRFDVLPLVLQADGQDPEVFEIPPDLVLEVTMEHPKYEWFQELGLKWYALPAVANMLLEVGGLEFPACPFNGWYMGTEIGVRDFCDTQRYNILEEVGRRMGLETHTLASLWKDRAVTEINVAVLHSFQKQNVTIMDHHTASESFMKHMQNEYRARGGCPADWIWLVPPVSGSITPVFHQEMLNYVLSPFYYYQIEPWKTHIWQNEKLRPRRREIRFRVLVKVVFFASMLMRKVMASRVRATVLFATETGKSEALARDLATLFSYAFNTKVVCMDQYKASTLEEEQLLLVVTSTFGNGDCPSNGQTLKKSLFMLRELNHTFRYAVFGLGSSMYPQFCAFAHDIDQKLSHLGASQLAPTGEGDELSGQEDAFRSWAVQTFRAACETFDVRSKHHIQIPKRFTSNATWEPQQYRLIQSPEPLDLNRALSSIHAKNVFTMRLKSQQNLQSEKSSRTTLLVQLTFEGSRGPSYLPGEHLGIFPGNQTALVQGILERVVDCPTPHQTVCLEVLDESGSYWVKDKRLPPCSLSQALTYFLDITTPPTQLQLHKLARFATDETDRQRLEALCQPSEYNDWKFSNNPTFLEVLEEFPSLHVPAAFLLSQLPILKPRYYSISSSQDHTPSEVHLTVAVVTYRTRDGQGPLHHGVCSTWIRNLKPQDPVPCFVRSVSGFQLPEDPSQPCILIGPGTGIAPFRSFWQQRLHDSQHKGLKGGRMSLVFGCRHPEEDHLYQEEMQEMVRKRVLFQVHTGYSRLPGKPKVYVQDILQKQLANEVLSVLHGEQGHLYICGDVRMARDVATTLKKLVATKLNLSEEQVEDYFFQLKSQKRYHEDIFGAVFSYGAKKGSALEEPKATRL

Row | SMILES | Ratio Ki [1] | Ki [2] | Ratio Ki [3] | Ki [4] | Ki [5]
1 | Cc1cc(N)nc(CCCCCCCc2cc(C)cc(N)n2)c1 | 25 | 86 nM | 25 | 2150 nM | 2190 nM
2 | Cc1cc(N)nc(COc2ccccc2-c2ccccc2OCc2ccncc2)c1 |  | 3850 nM |  |  | 
3 | Cc1cc(N)nc(COc2cccc(OCCCN)c2)c1 | 298 |  | 140 |  | 
4 | Cc1cc(N)nc(COc2cccc(OCC3CCNCC3)c2)c1 | 239 |  | 146 |  | 
5 | Cc1cc(N)nc(COc2ccccc2-c2ccccc2OCC2CCNCC2)c1 |  | 4230 nM |  |  | 
6 | Cc1cc(N)nc(COc2cccc(NCCc3cccc(F)c3)c2)c1 |  | 2160 nM |  |  | 
7 | Cc1cc(N)nc(CCCCCc2cc(C)cc(N)n2)c1 |  |  |  |  | 375 nM
8 | Cc1cc(N)nc(CCCCCCc2cc(C)cc(N)n2)c1 | 86 | 33 nM | 54 | 2840 nM | 1800 nM
9 | Cc1cc(N)nc(COc2cccc(OCc3ccncc3)c2)c1 | 102 |  | 44 |  | 
10 | Cc1cc(N)nc(COCc2cccc(CNCCc3cccc(F)c3)n2)c1 | 21 | 270 nM | 31 | 5620 nM | 8430 nM
